From patent publication US20200369728A1, “PEPTIDOMIMETIC MACROCYCLES AND USES THEREOF” (Aileron Therapeutics, Inc., priority 2015, published 2020)
Bridge positions count the residues as written; N and C are the ends. Square brackets hold non-standard residues; d marks the D form. Peptide text beside a SMILES is read from it. R8 = C=CCCCCCC[C@@](C)(N)C(=O)O; hLeu = CC(C)CC[C@H](N)C(=O)O; S5 = C=CCCC[C@](C)(N)C(=O)O

What was measured:
Caspase 3 = Caspase 3 detection assay in SJSA1 cells; format: cell-based; settings: SJSA1, 48 h, Caspase 3 activation over DMSO-treated cells
SJSA-1 cells = test: Cell lysis by peptidomimetic macrocycles (LDH release); format: cell-based; settings: SJSA-1, 1 h
Method in brief: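 SJSA-1 cells plated the day before, switched to RPMI with 1% FBS, then exposed 1 h at 37 °C to macrocycle at final 50 μM to 6.25 μM in 0.5% DMSO. LDH released into the supernatant was measured by kit. Controls: 0.5% DMSO (non-lytic), 10 μM melittin and 1% Triton X-100 (lytic).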

RKO = test: Cell viability assay (MTT), RKO; settings: read-out: RKO EC50 (72 h)

CC(=O)N[C@@H](CC(C)C)C(=O)N[C@H](C(=O)N[C@@H](Cc1ccccc1)C(=O)N[C@]1(C)CCCCCCC=CCCC[C@@](C)(C(=O)N[C@@H](CO)C(=O)N[C@@H](C)C(=O)N[C@@H](C)C(N)=O)NC(=O)[C@H](CC2CCCCC2)NC(=O)[C@H](CCC(N)=O)NC(=O)[C@H](C)NC(=O)[C@H](Cc2c[nH]c3ccccc23)NC(=O)[C@H](Cc2ccc(O)cc2)NC(=O)[C@H](CCC(=O)O)NC1=O)[C@@H](C)O (single isomer, unassigned) [compound 148] was tested, and the “caspase 0.3 μM” value (Caspase 3) was 1, the “caspase 3 μM” value (Caspase 3) was 11 and the “caspase 10 μM” value (Caspase 3) was 23. For the same compound, the “caspase 30 μM” value (Caspase 3) was 31, the “6.25 μM % Lysed cells (1 h LDH)” value (SJSA-1 cells) was 0% and the “25 μM % Lysed cells (1 h LDH)” value (SJSA-1 cells) was −1%. The “50 μM % Lysed cells (1 h LDH)” value (SJSA-1 cells) was 0% and the EC50 (RKO) was 15 to 30 µM.
With CC[C@H](C)[C@H](NC(=O)[C@H](C)NC(=O)[C@H](C)NC(=O)[C@]1(C)CCCC=CCCCCCC[C@@](C)(NC(=O)[C@H](Cc2ccccc2)NC(=O)[C@@H](NC(=O)[C@H](CCC(=O)O)NC(C)=O)[C@@H](C)O)C(=O)N[C@@H](CCC(=O)O)C(=O)N[C@@H](Cc2c[nH]cn2)C(=O)N[C@@H](Cc2c[nH]c3ccccc23)C(=O)N[C@@H](C)C(=O)N[C@@H](CCC(N)=O)C(=O)N[C@@H](CC(C)C)C(=O)N1)C(=O)N[C@H](C)C(N)=O (single isomer, unassigned) [compound 175] the “caspase 0.3 μM” value (Caspase 3) was 1, the “caspase 3 μM” value (Caspase 3) was 5 and the “caspase 10 μM” value (Caspase 3) was 12. The “caspase 30 μM” value (Caspase 3) was 21, the “6.25 μM % Lysed cells (1 h LDH)” value (SJSA-1 cells) was 3% and the “25 μM % Lysed cells (1 h LDH)” value (SJSA-1 cells) was 1%. For the same compound, the “50 μM % Lysed cells (1 h LDH)” value (SJSA-1 cells) was 0% and the EC50 (RKO) was over 30 µM.
In the case of CC(=O)N[C@@H](CC(C)C)C(=O)N[C@H](C(=O)N[C@@H](Cc1ccccc1)C(=O)N[C@]1(C)CCCCCCC=CCCC[C@@](C)(C(=O)N[C@@H](CO)C(=O)N[C@@H](C)C(=O)N[C@@H](CC(C)C)C(N)=O)NC(=O)[C@H](CC(C)C)NC(=O)[C@H](CCC(N)=O)NC(=O)[C@H](C)NC(=O)[C@H](Cc2c[nH]c3ccccc23)NC(=O)[C@H](Cc2ccc(O)cc2)NC(=O)[C@H](C)NC1=O)[C@@H](C)O [compound 4] (Ac-LTF[R8]AYWAQL[S5]SAL-NH2; staple 4-11), the “caspase 3 μM” value (Caspase 3) is reported as 9, the “caspase 10 μM” value (Caspase 3) is reported as 37 and the “caspase 30 μM” value (Caspase 3) is reported as 35. The “6.25 μM % Lysed cells (1 h LDH)” value (SJSA-1 cells) was −2%, the “25 μM % Lysed cells (1 h LDH)” value (SJSA-1 cells) was 1% and the “50 μM % Lysed cells (1 h LDH)” value (SJSA-1 cells) was 2%. For the same compound, the EC50 (RKO) was under 5 µM.
For CC(=O)N[C@@H](CC(C)C)C(=O)N[C@H](C(=O)N[C@@H](Cc1ccccc1)C(=O)N[C@]1(C)CCCCCC/C=C/CCC[C@@](C)(C(=O)N[C@@H](CO)C(=O)N[C@@H](C)C(=O)N[C@@H](C)C(N)=O)NC(=O)[C@H](CCC(C)C)NC(=O)[C@H](CCC(N)=O)NC(=O)[C@H](C)NC(=O)[C@H](Cc2c[nH]c3ccccc23)NC(=O)[C@H](Cc2ccc(O)cc2)NC(=O)[C@H](C)NC1=O)[C@@H](C)O [compound 115] (Ac-LTF[R8]AYWAQ[hLeu][S5]SAA-NH2; staple (E) 4-11), the “caspase 0.3 μM” value (Caspase 3) was 1, the “caspase 3 μM” value (Caspase 3) was 10 and the “caspase 10 μM” value (Caspase 3) was 26. For the same compound, the “caspase 30 μM” value (Caspase 3) was 32, the “6.25 μM % Lysed cells (1 h LDH)” value (SJSA-1 cells) was 0% and the “25 μM % Lysed cells (1 h LDH)” value (SJSA-1 cells) was −1%. For the same compound, the “50 μM % Lysed cells (1 h LDH)” value (SJSA-1 cells) was 6% and the EC50 (RKO) was 5 to 15 µM.
With CC(=O)N[C@@H](CC(C)C)C(=O)N[C@H](C(=O)N[C@@H](Cc1ccccc1)C(=O)N[C@]1(C)CCCCCCC=CCCC[C@@](C)(C(=O)N[C@@H](CO)C(=O)N[C@@H](C)C(=O)N[C@@H](CO)C(N)=O)NC(=O)[C@H](CC(C)C)NC(=O)[C@H](CCC(N)=O)NC(=O)[C@H](C)NC(=O)[C@H](Cc2c[nH]c3ccccc23)NC(=O)[C@H](Cc2ccc(O)cc2)NC(=O)[C@H](C)NC1=O)[C@@H](C)O [compound 122] (Ac-LTF[R8]AYWAQL[S5]SAS-NH2; staple 4-11) the “caspase 0.3 μM” value (Caspase 3) was 1, the “caspase 3 μM” value (Caspase 3) was 2 and the “caspase 10 μM” value (Caspase 3) was 15. The “caspase 30 μM” value (Caspase 3) was 30, the “6.25 μM % Lysed cells (1 h LDH)” value (SJSA-1 cells) was 1% and the “25 μM % Lysed cells (1 h LDH)” value (SJSA-1 cells) was 0%. The “50 μM % Lysed cells (1 h LDH)” value (SJSA-1 cells) was 6% and the EC50 (RKO) was 5 to 15 µM.
